Molecular target: T1, GST-JAK2(808-1132) (Homo sapiens, UniProt O60674)
T1 construct: GST-JAK2(808-1132) is purchased from Invitrogen; purchased Invitrogen (Carlsbad, USA) #4288
Experiment: EPK JAK/TYK-kinase family profiling assay (Caliper mobility shift), JAK2
Assay type: biochemical
Settings: Caliper mobility shift assay of Example 187, 20 μM ATP, read-out: IC50 with Test in present Example
In short: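 Caliper mobility-shift assay with the GST-tagged kinase domain and a fluorescently labeled peptide substrate plus ATP, run 60 min at 30° C and then stopped with EDTA buffer. Turnover was taken as the substrate/product ratio. Compounds were tested at eight final concentrations from 10 to 0.003 μM.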

T1 sequence (O60674 808-1132): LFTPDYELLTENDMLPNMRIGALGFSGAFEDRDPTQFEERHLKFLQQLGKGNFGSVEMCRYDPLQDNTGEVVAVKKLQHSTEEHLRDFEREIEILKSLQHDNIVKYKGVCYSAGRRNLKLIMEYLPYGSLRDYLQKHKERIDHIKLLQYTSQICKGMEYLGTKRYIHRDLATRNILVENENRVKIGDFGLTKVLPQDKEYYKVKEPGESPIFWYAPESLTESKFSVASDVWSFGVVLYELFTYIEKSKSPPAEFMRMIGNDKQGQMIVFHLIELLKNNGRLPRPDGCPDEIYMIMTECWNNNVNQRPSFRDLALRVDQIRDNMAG

IC50 [nM] | Compound
< 3 | Cc1cc(Nc2nc3cccc(-c4ccc(CC(=O)N5CCS(=O)(=O)CC5)c(F)c4)c3o2)ccc1C(=O)N(C)C [Example 83, 4-(7-{4-[2-(1,1-Dioxo-1lambda*6*-thiomorpholin-4-yl)-2-oxo-ethyl]-3-fluoro-phenyl}-benzooxazol-2-ylamino)-2,N,N-trimethyl-benzamide]
3.3 | Cc1cc(Nc2nc3cccc(-c4ccc(CC(=O)N5CCS(=O)(=O)CC5)cc4)c3o2)ccc1C(=O)N(C)C [Example 77, 4-(7-{4-[2-(1,1-Dioxo-1lambda*6*-thiomorpholin-4-yl)-2-oxo-ethyl]-phenyl}-benzooxazol-2-ylamino)-2, N,N-trimethyl-benzamide]
80 | Cc1cc(Nc2nc3cccc(-c4cc(F)c(CN5CCOCC5)c(F)c4)c3o2)cn(C)c1=O [Example 161, 5-[7-(3,5-Difluoro-4-morpholin-4-ylmethyl-phenyl)-benzooxazol-2-ylamino]-1,3-dimethyl-1H-pyridin-2-one]
4.8 | Cc1cc(-c2cccc3nc(Nc4ccc(N5CCN(C)CC5)cc4)oc23)ccc1C(=O)N1CCOCC1 [Example 82, (2-Methyl-4-{2-[4-(4-methyl-piperazin-1-yl)-phenylamino]-benzooxazol-7-yl}-phenyl)-morpholin-4-yl-methanone]
17.5 | CCN1CCN(c2ccc(Nc3nc4cccc(-c5ccc(S(N)(=O)=O)cc5)c4o3)cc2C)CC1 [Example 112, 4-{2-[4-(4-Ethyl-piperazin-1-yl)-3-methyl-phenylamino]-benzooxazol-7-yl}-benzenesulfonamide]
98 | O=C1Cc2cc(Nc3nc4cccc(-c5cc(F)c(CN6CCOCC6)c(F)c5)c4o3)ccc2N1 [Example 134, 5-[7-(3,5-Difluoro-4-morpholin-4-ylmethyl-phenyl)-benzooxazol-2-ylamino]-1,3-dihydro-indol-2-one]
270 | CS(=O)(=O)c1ccc(-c2cccc3nc(Nc4ccc(N5CCN(C6CC6)CC5)cc4)oc23)cc1 [Example 113, [4-(4-Cyclopropyl-piperazin-1-yl)-phenyl]-[7-(4-methanesulfonyl-phenyl)-benzooxazol-2-yl]-amine]
19.5 | CN(C)C(=O)c1ccc(Nc2nc3cccc(-c4ccc(S(N)(=O)=O)cc4)c3o2)cc1 [Example 146, N,N-Dimethyl-4-[7-(4-sulfamoyl-phenyl)-benzooxazol-2-ylamino]-benzamide]
62 | COC(=O)c1ccc(Nc2nc3cccc(-c4ccc(C(=O)N5CCOCC5)cc4)c3o2)cc1OC [Example 149, 2-Methoxy-4-{7-[4-(morpholine-4-carbonyl)-phenyl]-benzooxazol-2-ylamino}-benzoic acid methyl ester]
52 | CN1CCN(c2ccc(Nc3nc4cccc(-c5ccc(S(N)(=O)=O)cc5)c4o3)cc2)CC1 [Example 93, 4-{2-[4-(4-Methyl-piperazin-1-yl)-phenylamino]-benzooxazol-7-yl}-benzenesulfonamide]
11 | Cc1cc(Nc2nc3cccc(-c4ccc(C(=O)N5CCS(=O)(=O)CC5)cc4)c3o2)ccc1CN1CCOCC1 [Example 165, (1,1-Dioxo-1lambda*6*-thiomorpholin-4-yl)-{4-[2-(3-methyl-4-morpholin-4-ylmethyl-phenylamino)-benzooxazol-7-yl]-phenyl}-methanone]
21.5 | Cc1cc(-c2cccc3nc(Nc4ccc(N5CCN(C6CC6)CC5)cc4)oc23)ccc1C(=O)N1CCOCC1 [Example 97, (4-{2-[4-(4-Cyclopropyl-piperazin-1-yl)-phenylamino]-benzooxazol-7-yl}-2-methyl-phenyl)-morpholin-4-yl-methanone]
3.3 | Cc1cc(Nc2nc3cccc(-c4cc(F)c(CN5CCS(=O)(=O)CC5)c(F)c4)c3o2)ccc1N1CCN(C2CC2)CC1 [Example 154, [4-(4-Cyclopropyl-piperazin-1-yl)-3-methyl-phenyl]-{7-[4-(1,1-dioxo-1lambda*6*-thiomorpholin-4-ylmethyl)-3,5-difluoro-phenyl]-benzooxazol-2-yl}-amine]
3.6 | Cc1cc(Nc2nc3cccc(-c4cc(F)c(CN5CCS(=O)(=O)CC5)c(F)c4)c3o2)ccc1N1CCN(C(C)C)CC1 [Example 101, {7-[4-(1,1-Dioxo-1lambda*6*-thiomorpholin-4-ylmethyl)-3,5-difluoro-phenyl]-benzooxazol-2-yl}-[4-(4-isopropyl-piperazin-1-yl)-3-methyl-phenyl]-amine]

More lines, now with the values behind:

Compound | IC50 [nM]
CCN1CCN(c2ccc(Nc3nc4cccc(-c5ccc(CN6CCOCC6)c(F)c5)c4o3)cc2C)CC1 [Example 87, [4-(4-Ethyl-piperazin-1-yl)-3-methyl-phenyl]-[7-(3-fluoro-4-morpholin-4-ylmethyl-phenyl)-benzooxazol-2-yl]-amine] | 4.8
COc1ccc(Nc2nc3cccc(-c4cc(F)c(CN5CCS(=O)(=O)CC5)c(F)c4)c3o2)cc1N1CCN(C)CC1 [Example 130, {7-[4-(1,1-Dioxo-1lambda*6*-thiomorpholin-4-ylmethyl)-3,5-difluoro-phenyl]-benzooxazol-2-yl}-[4-methoxy-3-(4-methyl-piperazin-1-yl)-phenyl]-amine] | 6.55
Cc1cc(Nc2nc3cccc(-c4ccc(CN5CCOCC5)c(F)c4)c3o2)ccc1C(=O)N(C)C [Example 64, 4-[7-(3-Fluoro-4-morpholin-4-ylmethyl-phenyl)-benzooxazol-2-ylamino]-2,N,N-trimethyl-benzamide] | 4.2
O=S1(=O)CCN(Cc2c(F)cc(-c3cccc4nc(Nc5ccc(N6CCN(C7CC7)CC6)cc5)oc34)cc2F)CC1 [Example 114, [4-(4-Cyclopropyl-piperazin-1-yl)-phenyl]-{7-[4-(1,1-dioxo-1lambda*6*-thiomorpholin-4-ylmethyl)-3,5-difluoro-phenyl]-benzooxazol-2-yl}-amine] | 14.1
Cc1cc(-c2cccc3nc(Nc4ccc(N5CCN(C6CC6)CC5)c(C)c4)oc23)ccc1C(=O)N1CCOCC1 [Example 155, (4-{2-[4-(4-Cyclopropyl-piperazin-1-yl)-3-methyl-phenylamino]-benzooxazol-7-yl}-2-methyl-phenyl)-morpholin-4-yl-methanone] | 13.5
CCN1CCN(c2ccc(Nc3nc4cccc(-c5cc(F)c(CN6CCOCC6)c(F)c5)c4o3)cc2C)CC1 [Example 98, [7-(3,5-Difluoro-4-morpholin-4-ylmethyl-phenyl)-benzooxazol-2-yl]-[4-(4-ethyl-piperazin-1-yl)-3-methyl-phenyl]-amine] | 5.2
CCN1CCN(c2ccc(Nc3nc4ccnc(-c5cc(F)c(CN6CCOCC6)c(F)c5)c4o3)cc2C)CC1 [Example 152, [4-(3,5-Difluoro-4-morpholin-4-ylmethyl-phenyl)-oxazolo[5,4-c]pyridin-2-yl]-[4-(4-ethyl-piperazin-1-yl)-3-methyl-phenyl]-amine] | 180
Cc1cc(Nc2nc3cccc(-c4ccc(CN5CCOCC5)c(C(F)(F)F)c4)c3o2)ccc1C(=O)N(C)C [Example 86, 2,N,N-Trimethyl-4-[7-(4-morpholin-4-ylmethyl-3-trifluoromethyl-phenyl)-benzooxazol-2-ylamino]-benzamide] | 79
Cc1cc(Nc2nc3cccc(-c4cc(F)c(CN5CCOCC5)c(F)c4)c3o2)ccc1N1CCOCC1 [Example 163, [7-(3,5-Difluoro-4-morpholin-4-ylmethyl-phenyl)-benzooxazol-2-yl]-(3-methyl-4-morpholin-4-yl-phenyl)-amine] | 11.6
Cc1cc(Nc2nc3ccnc(-c4cc(F)c(CN5CCS(=O)(=O)CC5)c(F)c4)c3o2)ccc1C(=O)N(C)C [Example 168, 4-{4-[4-(1,1-Dioxo-1lambda*6*-thiomorpholin-4-ylmethyl)-3,5-difluoro-phenyl]-oxazolo[5,4-c]pyridin-2-ylamino}-2,N,N-trimethyl-benzamide] | 130
Cc1cc(Nc2nc3cccc(-c4ccc(S(C)(=O)=O)cc4)c3o2)ccc1N1CCN(CCN(C)C)CC1 [Example 100, {4-[4-(2-Dimethylamino-ethyl)-piperazin-1-yl]-3-methyl-phenyl}-[7-(4-methanesulfonyl-phenyl)-benzooxazol-2-yl]-amine] | 16.5
CN1CCN(c2ccc(Nc3nc4cccc(-c5ccc(CC(=O)N6CCOCC6)cc5)c4o3)cc2)CC1 [Example 74, 2-(4-{2-[4-(4-Methyl-piperazin-1-yl)-phenylamino]-benzooxazol-7-yl}-phenyl)-1-morpholin-4-yl-ethanone] | 5
CN1CCN(c2ccc(Nc3nc4cccc(-c5ccc(CN6CCS(=O)(=O)CC6)cc5)c4o3)cc2)CC1 [Example 89, {7-[4-(1,1-Dioxo-1lambda*6*-thiomorpholin-4-ylmethyl)-phenyl]-benzooxazol-2-yl}-[4-(4-methyl-piperazin-1-yl)-phenyl]-amine] | 60
Cc1cc(-c2cccc3nc(Nc4ccc(N5CCN(CCN(C)C)CC5)c(C)c4)oc23)ccc1C(=O)N1CCOCC1 [Example 102, [4-(2-{4-[4-(2-Dimethylamino-ethyl)-piperazin-1-yl]-3-methyl-phenylamino}-benzooxazol-7-yl)-2-methyl-phenyl]-morpholin-4-yl-methanone] | 5.65
